Target: T1, aryl hydrocarbon receptor (AhR) (Homo sapiens, UniProt P35869)
T1 construct: The HepG2 CYP1A1-Luc cells do express basal luciferase activity that can be increased via potent AhR agonists or decreased via potent AhR antagonists; endogenous in cells; host or cells: HepG2 (DSMZ # ACC 180) stably carrying a CYP1A1 promoter-firefly luciferase reporter
T1 sequence (P35869 11-848): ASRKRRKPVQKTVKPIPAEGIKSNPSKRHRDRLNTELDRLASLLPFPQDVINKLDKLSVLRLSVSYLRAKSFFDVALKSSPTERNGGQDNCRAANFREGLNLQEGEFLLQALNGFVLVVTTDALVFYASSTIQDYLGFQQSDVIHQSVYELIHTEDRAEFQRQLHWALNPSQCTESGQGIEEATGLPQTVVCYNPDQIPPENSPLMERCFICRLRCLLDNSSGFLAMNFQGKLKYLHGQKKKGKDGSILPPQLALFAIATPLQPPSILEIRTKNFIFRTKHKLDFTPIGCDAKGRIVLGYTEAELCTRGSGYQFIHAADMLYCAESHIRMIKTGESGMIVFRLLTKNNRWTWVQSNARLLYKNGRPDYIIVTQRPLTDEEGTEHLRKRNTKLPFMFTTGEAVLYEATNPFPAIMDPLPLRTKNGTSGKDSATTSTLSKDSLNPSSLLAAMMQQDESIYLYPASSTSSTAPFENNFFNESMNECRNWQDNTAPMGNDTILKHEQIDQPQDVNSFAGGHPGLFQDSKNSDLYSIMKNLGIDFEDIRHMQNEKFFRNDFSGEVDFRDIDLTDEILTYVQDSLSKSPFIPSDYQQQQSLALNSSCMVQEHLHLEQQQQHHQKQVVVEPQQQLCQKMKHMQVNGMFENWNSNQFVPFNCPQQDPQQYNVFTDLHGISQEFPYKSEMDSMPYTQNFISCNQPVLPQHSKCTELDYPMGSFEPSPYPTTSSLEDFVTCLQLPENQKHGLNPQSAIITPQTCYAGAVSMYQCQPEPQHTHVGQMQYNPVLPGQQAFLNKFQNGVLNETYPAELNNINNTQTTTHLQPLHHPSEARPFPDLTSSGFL
Assay: AhR direct luciferase reporter assay in HepG2 cells (HepG2 CYP1A1-LUC)
Type: cell-based
Settings: luciferase activity after 18 hours, no exogenous AhR agonist or 10 nM VAF347, read-out: AhR potency (AhR antagonistic potency, IC50)
Experimental: AhR Direct Luciferase Reporter Assay in HepG2 Cells.
A stable cell line (HepG2 CYP1A1-LUC) was used in which part of the promoter region of the human CYP1A1 gene is stably integrated into the genome of human HepG2 hepatocytes (DSZM # ACC 180) in front of a Photinus pyralis Firefly Luciferase gene. […] The resulting vector was linearized with NotI, transfected into HepG2 cells (DSMZ # ACC 180) and stably transfected clones selected with 250 μg/ml Hygromycin B. After repetitive rounds of subcloning and testing for robustly regulated luciferase activity after AhR agonist stimulation, a stable clonal HepG2 CYP1A1-Luc cell line was selected.
The HepG2 CYP1A1-Luc cells do express basal luciferase activity that can be increased via potent AhR agonists or decreased via potent AhR antagonists, added to the growth medium of the cells.
Cells are further cultivated for 18 hours and luciferase activities are determined from extracts of cells in buffers containing D-Luciferine and ATP using a LUMIstar Optima microplate Luminometer from BMG Labtech.

Compound	IC50
Cn1nccc1C(=O)Nc1ccc2cc(-c3ccccc3F)[nH]c2c1 [1/1, N-(2-(2-FLUOROPHENYL)-1H-INDOL-6-YL)-1-METHYL-1H-PYRAZOLE-5-CARBOXAMIDE]	100 to 1000 nM
Cn1nccc1C(=O)Nc1ccc2cc(-c3cccc(Cl)c3)[nH]c2c1 [1/2, N-(2-(3-CHLOROPHENYL)-1H-INDOL-6-YL)-1-METHYL-1H-PYRAZOLE-5-CARBOXAMIDE]	100 to 1000 nM
Cn1nccc1C(=O)Nc1ccc2cc(-c3ccccc3C(F)(F)F)[nH]c2c1 [2/1, 1-METHYL-N-(2-(2-(TRIFLUOROMETHYL)PHENYL)-1H-INDOL-6-YL)-1H-PYRAZOLE-5-CARBOXAMIDE]	< 100 nM
Cn1nccc1C(=O)Nc1ccc2cc(-c3ccc(Cl)cc3Cl)[nH]c2c1 [2/2, N-(2-(2,4-DICHLOROPHENYL)-1H-INDOL-6-YL)-1-METHYL-1H-PYRAZOLE-5-CARBOXAMIDE]	100 to 1000 nM
Cc1ccccc1-c1cc2ccc(NC(=O)c3ccnn3C(C)C)cc2[nH]1 [2/3, 1-ISOPROPYL-N-(2-(O-TOLYL)-1H-INDOL-6-YL)-1H-PYRAZOLE-5-CARBOXAMIDE]	> 1000 nM
Cn1ncnc1C(=O)Nc1ccc2cc(-c3ccccc3C(F)(F)F)[nH]c2c1 [2/4, 1-METHYL-N-(2-(2-(TRIFLUOROMETHYL)PHENYL)-1H-INDOL-6-YL)-1H-1,2,4-TRIAZOLE-5-CARBOXAMIDE]	< 100 nM
O=C(Nc1ccc2cc(-c3ccccc3C(F)(F)F)[nH]c2c1)c1ccccn1 [2/5, N-(2-(2-(TRIFLUOROMETHYL)PHENYL)-1H-INDOL-6-YL)PICOLINAMIDE]	< 100 nM
Cc1ccccc1-c1cc2ccc(NC(=O)c3ncnn3C)cc2[nH]1 [3/1, 1-METHYL-N-(2-(O-TOLYL)-1H-INDOL-6-YL)-1H-1,2,4-TRIAZOLE-5-CARBOXAMIDE]	< 100 nM
Cc1ccccc1-c1cc2ccc(NC(=O)c3cccn3C)cc2[nH]1 [3/2, 1-METHYL-N-(2-(O-TOLYL)-1H-INDOL-6-YL)-1H-PYRROLE-2-CARBOXAMIDE]	< 100 nM
Cc1ccccc1-c1cc2ccc(NC(=O)c3ccco3)cc2[nH]1 [3/3, N-(2-(O-TOLYL)-1H-INDOL-6-YL)FURAN-2-CARBOXAMIDE]	< 100 nM
Cc1ccccc1-c1cc2ccc(NC(=O)c3ccc(O)c(C(N)=O)c3)cc2[nH]1 [3/4, 4-HYDROXY-N^1-(2-(O-TOLYL)-1H-INDOL-6-YL)ISOPHTHALAMIDE]	> 1000 nM
Cc1ccccc1-c1cc2ccc(NC(=O)c3ccccn3)cc2[nH]1 [3/5, N-(2-(O-TOLYL)-1H-INDOL-6-YL)PICOLINAMIDE]	< 100 nM
Cc1cc2cc(-c3ccccc3C(F)(F)F)[nH]c2cc1NC(=O)c1ccccn1 [4/1, N-(5-METHYL-2-(2-(TRIFLUOROMETHYL)PHENYL)-1H-INDOL-6-YL)PICOLINAMIDE]	< 100 nM
Cn1nccc1C(=O)Nc1ccc2cc(-c3ccccc3C(F)F)[nH]c2c1 [6/1]	< 100 nM
Cn1ncnc1C(=O)Nc1ccc2cc(-c3cc(F)ccc3C(F)F)[nH]c2c1 [6/3]	< 100 nM
Cn1nccc1C(=O)Nc1ccc2cc(-c3cc(F)ccc3C(F)F)[nH]c2c1 [6/4]	< 100 nM
Cn1ncnc1C(=O)Nc1ccc2cc(-c3cc(Cl)ccc3C(F)(F)F)[nH]c2c1 [6/5]	< 100 nM
Cn1nccc1C(=O)Nc1ccc2cc(-c3cc(Cl)ccc3C(F)(F)F)[nH]c2c1 [6/6]	< 100 nM
Cn1nccc1C(=O)Nc1ccc2cc(-c3ccccc3Cl)[nH]c2c1 [Example 2, N-(2-(2-Chlorophenyl)-1H-indol-6-yl)-1-methyl-1H-pyrazole-5-carboxamide]	100 to 1000 nM
Cc1ccccc1-c1cc2ccc(NC(=O)c3ccn[nH]3)cc2[nH]1 [Example 3, N-(2-(O-TOLYL)-1H-INDOL-6-YL)-1H-PYRAZOLE-5-CARBOXAMIDE]	100 to 1000 nM
Cc1cc2cc(-c3ccccc3C(F)(F)F)[nH]c2cc1NC(=O)c1ncnn1C [Example 4, 1-METHYL-N-(5-METHYL-2-(2-(TRIFLUOROMETHYL)PHENYL)-1H-INDOL-6-YL)-1H-1,2,4-TRIAZOLE-5-CARBOXAMIDE]	< 100 nM
Cn1ncnc1C(=O)Nc1ccc2cc(-c3ccccc3C(F)F)[nH]c2c1 [Example 6, N-(2-(2-(Difluoromethyl)phenyl)-1H-indol-6-yl)-1-methyl-1H-1,2,4-triazole-5-carboxamide]	< 100 nM

Source: patent publication US20200031805A1, “ARYL HYDROCARBON RECEPTOR (AHR) MODULATOR COMPOUNDS” (PHENEX PHARMACEUTICALS AG, priority 2017, published 2020)
